Assay results taken from ChEMBL document CHEMBL1201862, “PubChem BioAssay data set” (2004).
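Briefly, cells in 96-well plates were exposed to five compound concentrations for 48 h, and endpoints were estimated by linear interpolation. At the GI50, growth is halved.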 Calls of active or inactive are those of the source. Rule as the data show it: active = GI50 up to about 1.1 µM and inactive = higher.

How the values were obtained:
Assay in all cases: DTP human tumour cell line panel, 48 h
[1] = system: EKVX
[2] = system: UO-31
[3] = system: K562
[4] = system: SNB-78
[5] = system: MOLT-4
[6] = system: HOP-18
[7] = system: COLO 205
[8] = system: NCI-H522
[9] = system: U-251
[10] = system: SF-268
[11] = system: OVCAR-8
[12] = system: SK-MEL-2
[13] = system: XF498
[14] = system: KM12
[15] = system: DMS-273
[16] = system: NCI-H460
[17] = system: HCT-116
[18] = system: OVCAR-4
[19] = system: A549
[20] = system: OVCAR-5
[21] = system: HT-29
[22] = system: SNB-75
[23] = system: 786-0
[24] = system: SK-MEL-5
[25] = system: CAKI-1
[26] = system: M14
[27] = system: M19-MEL
[28] = system: NCI-H226
[29] = system: OVCAR-3
[30] = system: ACHN
[31] = system: HCT-15
[32] = system: SF-295
[33] = system: HCC 2998
[34] = system: SK-MEL-28
[35] = system: TK-10
[36] = system: HL-60
[37] = system: DLD-1
[38] = system: UACC-257
[39] = system: NCI-H23
[40] = system: IGROV-1
[41] = system: SN12C
[42] = system: Malme-3M
[43] = system: RPMI-8226
[44] = system: SK-OV-3
[45] = system: CCRF-CEM
[46] = system: LXFL 529
[47] = system: SF-539
[48] = system: SNB-19
[49] = system: HOP-62
[50] = system: SW-620
[51] = system: LOX IMVI
[52] = system: DMS-114
[53] = system: HOP-92
[54] = system: RXF 393
[55] = system: KM-20L2
[56] = system: A498
[57] = system: UACC-62
[58] = system: SR

CCCN(CCC)c1c([N+](=O)[O-])cc(C(=O)N(CCO)CCO)cc1[N+](=O)[O-]
GI50 [1]: 57.4 µM (inactive)
GI50 [2]: > 100 µM (inactive)
GI50 [3]: 61.4 µM (inactive)
GI50 [4]: > 100 µM (inactive)
GI50 [5]: > 100 µM (inactive)
GI50 [6]: > 100 µM (inactive)
GI50 [7]: > 100 µM (inactive)
GI50 [8]: > 100 µM (inactive)
GI50 [9]: > 100 µM (inactive)
GI50 [10]: > 100 µM (inactive)
GI50 [11]: > 100 µM (inactive)
GI50 [12]: > 100 µM (inactive)
GI50 [13]: 97.1 µM (inactive)
GI50 [14]: > 100 µM (inactive)
GI50 [15]: > 100 µM (inactive)
GI50 [16]: > 100 µM (inactive)
GI50 [17]: > 100 µM (inactive)
GI50 [18]: > 100 µM (inactive)
GI50 [19]: > 100 µM (inactive)
GI50 [20]: > 100 µM (inactive)
GI50 [21]: > 100 µM (inactive)
GI50 [22]: > 100 µM (inactive)
GI50 [23]: > 100 µM (inactive)
GI50 [24]: > 100 µM (inactive)
GI50 [25]: > 100 µM (inactive)
GI50 [26]: > 100 µM (inactive)
GI50 [27]: > 100 µM (inactive)
GI50 [28]: > 100 µM (inactive)
GI50 [29]: > 100 µM (inactive)
GI50 [30]: > 100 µM (inactive)
GI50 [31]: > 100 µM
GI50 [32]: > 100 µM (inactive)
GI50 [33]: > 100 µM (inactive)
GI50 [34]: > 100 µM (inactive)
GI50 [35]: > 100 µM (inactive)
GI50 [36]: > 100 µM (inactive)
GI50 [37]: > 100 µM (inactive)
GI50 [38]: > 100 µM (inactive)
GI50 [39]: > 100 µM (inactive)
GI50 [40]: > 100 µM (inactive)
GI50 [41]: > 100 µM (inactive)
GI50 [42]: > 100 µM (inactive)
GI50 [43]: > 100 µM (inactive)
GI50 [44]: > 100 µM (inactive)
GI50 [45]: > 100 µM (inactive)
GI50 [46]: > 100 µM (inactive)
GI50 [47]: > 100 µM (inactive)

CCOc1ccc(NC(=O)/C(=C/c2ccccc2)C(C)=O)cc1
GI50 [1]: 17.8 µM (inactive)
GI50 [2]: 9.66 µM (inactive)
GI50 [48]: 12.1 µM (inactive)
GI50 [3]: 5.27 µM (inactive)
GI50 [4]: 13.4 µM (inactive)
GI50 [49]: 16.3 µM (inactive)
GI50 [5]: 3.73 µM (inactive)
GI50 [50]: 13.2 µM (inactive)
GI50 [6]: 12.9 µM (inactive)
GI50 [7]: 17.2 µM (inactive)
GI50 [8]: 2.12 µM (inactive)
GI50 [9]: 12.6 µM (inactive)
GI50 [10]: 11.3 µM (inactive)
GI50 [11]: 12.1 µM (inactive)
GI50 [51]: 7.14 µM (inactive)
GI50 [12]: 13.2 µM (inactive)
GI50 [52]: 11.9 µM (inactive)
GI50 [13]: 14.4 µM (inactive)
GI50 [14]: 7.1 µM (inactive)
GI50 [15]: 9.14 µM (inactive)
GI50 [16]: 17.4 µM (inactive)
GI50 [17]: 4.94 µM (inactive)
GI50 [18]: 13.4 µM (inactive)
GI50 [19]: 22.2 µM (inactive)
GI50 [20]: 17.6 µM (inactive)
GI50 [21]: 10.3 µM (inactive)
GI50 [22]: 4.59 µM (inactive)
GI50 [23]: 12.2 µM (inactive)
GI50 [53]: 14.1 µM (inactive)
GI50 [24]: 12.2 µM (inactive)
GI50 [25]: 11.7 µM (inactive)
GI50 [26]: 12.3 µM (inactive)
GI50 [27]: 10.8 µM (inactive)
GI50 [28]: 13.2 µM (inactive)
GI50 [29]: 12.5 µM (inactive)
GI50 [30]: 15.3 µM (inactive)
GI50 [31]: 8.99 µM
GI50 [32]: 13.5 µM (inactive)
GI50 [33]: 13.3 µM (inactive)
GI50 [34]: 12.9 µM (inactive)
GI50 [35]: 17.3 µM (inactive)
GI50 [36]: 2.32 µM (inactive)
GI50 [37]: 7.38 µM (inactive)
GI50 [38]: 12.2 µM (inactive)
GI50 [39]: 10.9 µM (inactive)
GI50 [40]: 10.2 µM (inactive)
GI50 [41]: 13.2 µM (inactive)
GI50 [54]: 5.32 µM (inactive)
GI50 [42]: 16.5 µM (inactive)
GI50 [55]: 12.9 µM (inactive)
GI50 [56]: 18.1 µM (inactive)
GI50 [57]: 5.04 µM (inactive)
GI50 [43]: 2.94 µM (inactive)
GI50 [44]: 24.6 µM (inactive)
GI50 [45]: 2.87 µM (inactive)
GI50 [47]: 10.1 µM (inactive)

CC(C)C(=O)/C=C/c1ccc(Cl)c(Cl)c1
GI50 [1]: 23.4 µM (inactive)
GI50 [2]: 14.2 µM (inactive)
GI50 [48]: 15.1 µM (inactive)
GI50 [3]: 6.18 µM (inactive)
GI50 [4]: 34.8 µM (inactive)
GI50 [5]: 24.4 µM (inactive)
GI50 [50]: 15.6 µM (inactive)
GI50 [6]: 11.4 µM (inactive)
GI50 [7]: 24.9 µM (inactive)
GI50 [8]: 13.4 µM (inactive)
GI50 [9]: 17 µM (inactive)
GI50 [10]: 19.2 µM (inactive)
GI50 [11]: 18.9 µM (inactive)
GI50 [12]: 17.5 µM (inactive)
GI50 [52]: 19.2 µM (inactive)
GI50 [13]: 12.5 µM (inactive)
GI50 [14]: 14.8 µM (inactive)
GI50 [16]: 22.2 µM (inactive)
GI50 [17]: 3.69 µM (inactive)
GI50 [18]: 34.9 µM (inactive)
GI50 [19]: 21 µM (inactive)
GI50 [20]: 21.7 µM (inactive)
GI50 [21]: 19.7 µM (inactive)
GI50 [22]: > 10 µM (inactive)
GI50 [23]: 14.5 µM (inactive)
GI50 [53]: 17.4 µM (inactive)
GI50 [24]: 14.8 µM (inactive)
GI50 [26]: 17.5 µM (inactive)
GI50 [27]: 17.7 µM (inactive)
GI50 [29]: 14.5 µM (inactive)
GI50 [30]: 18.5 µM (inactive)
GI50 [32]: 13.4 µM (inactive)
GI50 [33]: 18.8 µM (inactive)
GI50 [58]: 14.5 µM (inactive)
GI50 [34]: 18.7 µM (inactive)
GI50 [35]: 14.2 µM (inactive)
GI50 [36]: 15 µM (inactive)
GI50 [37]: 14.6 µM (inactive)
GI50 [38]: 21.5 µM (inactive)
GI50 [39]: 18.3 µM (inactive)
GI50 [40]: 20 µM (inactive)
GI50 [41]: 15 µM (inactive)
GI50 [54]: 16.7 µM (inactive)
GI50 [55]: 19.2 µM (inactive)
GI50 [56]: 24.8 µM (inactive)
GI50 [57]: 17.3 µM (inactive)
GI50 [43]: 13.8 µM (inactive)
GI50 [44]: 28.6 µM (inactive)
GI50 [45]: 4.53 µM (inactive)
GI50 [46]: 18.7 µM (inactive)
GI50 [47]: 13.2 µM (inactive)
